From PMC7758046, “Novel piperazine–chalcone hybrids and related pyrazoline analogues targeting VEGFR-2 kinase; design, synthesis, molecular docking studies, and anticancer evaluation” (Journal of Enzyme Inhibition and Medicinal Chemistry, 2020)

How the values were obtained:
786-0 (Renal cancer) = experiment: NCI-60 single-dose anticancer screen; format: cell-based, human; conditions: 10 µM single dose
Experimental: (§1) Six compounds were selected by the NCI, according to NCI’s DTP selection guidelines, for evaluation of their anticancer activity at a single-dose of 10 µM against 60 human tumours cell lines.
(§2) In vitro cytotoxicity was performed in NCI according to reported method.

A498 (Renal cancer) = experiment: NCI-60 single-dose anticancer screen; format: cell-based, human; conditions: 10 µM single dose
Experimental: as §1, §2

[1] = system: A549/ATCC (Non-small cell lung cancer); experiment: NCI-60 single-dose anticancer screen; format: cell-based, human; conditions: 10 µM single dose
Experimental: as §1, §2

ACHN (Renal cancer) = experiment: NCI-60 single-dose anticancer screen; format: cell-based, human; conditions: 10 µM single dose
Experimental: as §1, §2

BT-549 (Breast cancer) = experiment: NCI-60 single-dose anticancer screen; format: cell-based, human; conditions: 10 µM single dose
Experimental: as §1, §2

CCRF-CEM (Leukaemia) = experiment: NCI-60 single-dose anticancer screen; format: cell-based, human; conditions: 10 µM single dose
Experimental: as §1, §2

COLO 205 (Colon cancer) = experiment: NCI-60 single-dose anticancer screen; format: cell-based, human; conditions: 10 µM single dose
Experimental: as §1, §2

DU-145 (Prostate cancer) = experiment: NCI-60 single-dose anticancer screen; format: cell-based, human; conditions: 10 µM single dose
Experimental: as §1, §2

[2] = system: EKVX (Non-small cell lung cancer); experiment: NCI-60 single-dose anticancer screen; format: cell-based, human; conditions: 10 µM single dose
Experimental: as §1, §2

HCC-2998 (Colon cancer) = experiment: NCI-60 single-dose anticancer screen; format: cell-based, human; conditions: 10 µM single dose
Experimental: as §1, §2

HCT-116 (Colon cancer) = experiment: NCI-60 single-dose anticancer screen; format: cell-based, human; conditions: for cell growth promotion: 10 µM single dose; for inhibition at 10 µM: Homo sapiens, read-out: cell growth inhibition
Experimental: as §1, §2

HCT-15 (Colon cancer) = experiment: NCI-60 single-dose anticancer screen; format: cell-based, human; conditions: 10 µM single dose
Experimental: as §1, §2

HL-60(TB) (Leukaemia) = experiment: NCI-60 single-dose anticancer screen; format: cell-based, human; conditions: 10 µM single dose
Experimental: as §1, §2

[3] = system: HOP-92 (Non-small cell lung cancer); experiment: NCI-60 single-dose anticancer screen; format: cell-based, human; conditions: 10 µM single dose; for inhibition at 10 µM: Homo sapiens, read-out: cell growth inhibition
Experimental: as §1, §2

IGROV1 (Ovarian cancer) = experiment: NCI-60 single-dose anticancer screen; format: cell-based, human; conditions: 10 µM single dose
Experimental: as §1, §2

KM12 (Colon cancer) = experiment: NCI-60 single-dose anticancer screen; format: cell-based, human; conditions: 10 µM single dose
Experimental: as §1, §2

LOX IMVI (Melanoma) = experiment: NCI-60 single-dose anticancer screen; format: cell-based, human; conditions: 10 µM single dose
Experimental: as §1, §2

M14 (Melanoma) = experiment: NCI-60 single-dose anticancer screen; format: cell-based, human; conditions: 10 µM single dose
Experimental: as §1, §2

MALME-3M (Melanoma) = experiment: NCI-60 single-dose anticancer screen; format: cell-based, human; conditions: 10 µM single dose
Experimental: as §1, §2

MCF7 (Breast cancer) = experiment: NCI-60 single-dose anticancer screen; format: cell-based, human; conditions: 10 µM single dose
Experimental: as §1, §2

[4] = system: MDA-MB-231/ATCC (Breast cancer); experiment: NCI-60 single-dose anticancer screen; format: cell-based, human; conditions: 10 µM single dose
Experimental: as §1, §2

MDA-MB-435 (Melanoma) = experiment: NCI-60 single-dose anticancer screen; format: cell-based, human; conditions: 10 µM single dose
Experimental: as §1, §2

[5] = system: NCI-H460 (Non-small cell lung cancer); experiment: NCI-60 single-dose anticancer screen; format: cell-based, human; conditions: 10 µM single dose
Experimental: as §1, §2

[6] = system: NCI/ADR-RES (Ovarian cancer); experiment: NCI-60 single-dose anticancer screen; format: cell-based, human; conditions: 10 µM single dose
Experimental: as §1, §2

OVCAR-4 (Ovarian cancer) = experiment: NCI-60 single-dose anticancer screen; format: cell-based, human; conditions: 10 µM single dose
Experimental: as §1, §2

OVCAR-5 (Ovarian cancer) = experiment: NCI-60 single-dose anticancer screen; format: cell-based, human; conditions: 10 µM single dose
Experimental: as §1, §2

OVCAR-8 (Ovarian cancer) = experiment: NCI-60 single-dose anticancer screen; format: cell-based, human; conditions: 10 µM single dose
Experimental: as §1, §2

PC-3 (Prostate cancer) = experiment: NCI-60 single-dose anticancer screen; format: cell-based, human; conditions: 10 µM single dose
Experimental: as §1, §2

RPMI-8226 (Leukaemia) = experiment: NCI-60 single-dose anticancer screen; format: cell-based, human; conditions: 10 µM single dose
Experimental: as §1, §2

RXF 393 (Renal cancer) = experiment: NCI-60 single-dose anticancer screen; format: cell-based, human; conditions: 10 µM single dose
Experimental: as §1, §2

SK-MEL-2 (Melanoma) = experiment: NCI-60 single-dose anticancer screen; format: cell-based, human; conditions: 10 µM single dose
Experimental: as §1, §2

SK-MEL-28 (Melanoma) = experiment: NCI-60 single-dose anticancer screen; format: cell-based, human; conditions: 10 µM single dose
Experimental: as §1, §2

SK-OV-3 (Ovarian cancer) = experiment: NCI-60 single-dose anticancer screen; format: cell-based, human; conditions: 10 µM single dose
Experimental: as §1, §2

SNB-19 (CNS cancer) = experiment: NCI-60 single-dose anticancer screen; format: cell-based, human; conditions: 10 µM single dose
Experimental: as §1, §2

SW-620 (Colon cancer) = experiment: NCI-60 single-dose anticancer screen; format: cell-based, human; conditions: 10 µM single dose
Experimental: as §1, §2

T-47D (Breast cancer) = experiment: NCI-60 single-dose anticancer screen; format: cell-based, human; conditions: 10 µM single dose
Experimental: as §1, §2

TK-10 (Renal cancer) = experiment: NCI-60 single-dose anticancer screen; format: cell-based, human; conditions: 10 µM single dose
Experimental: as §1, §2

U251 (CNS cancer) = experiment: NCI-60 single-dose anticancer screen; format: cell-based, human; conditions: 10 µM single dose
Experimental: as §1, §2

UACC-257 (Melanoma) = experiment: NCI-60 single-dose anticancer screen; format: cell-based, human; conditions: 10 µM single dose
Experimental: as §1, §2

UACC-62 (Melanoma) = experiment: NCI-60 single-dose anticancer screen; format: cell-based, human; conditions: 10 µM single dose
Experimental: as §1, §2

UO-31 (Renal cancer) = experiment: NCI-60 single-dose anticancer screen; format: cell-based, human; conditions: 10 µM single dose
Experimental: as §1, §2

human VEGFR-2 = biological target: T1, human VEGFR-2 (Homo sapiens, UniProt P35968); experiment: In vitro VEGFR-2 inhibitory assay (colorimetric human VEGFR-2 ELISA, HTScan VEGF Receptor 2 Kinase Assay Kit); format: biochemical; conditions: VEGFR-2 inhibition
T1 construct: It includes active VEGFR-2 kinase; purchased HTScan VEGF Receptor 2 Kinase Assay Kit
T1 sequence (P35968 20-1356): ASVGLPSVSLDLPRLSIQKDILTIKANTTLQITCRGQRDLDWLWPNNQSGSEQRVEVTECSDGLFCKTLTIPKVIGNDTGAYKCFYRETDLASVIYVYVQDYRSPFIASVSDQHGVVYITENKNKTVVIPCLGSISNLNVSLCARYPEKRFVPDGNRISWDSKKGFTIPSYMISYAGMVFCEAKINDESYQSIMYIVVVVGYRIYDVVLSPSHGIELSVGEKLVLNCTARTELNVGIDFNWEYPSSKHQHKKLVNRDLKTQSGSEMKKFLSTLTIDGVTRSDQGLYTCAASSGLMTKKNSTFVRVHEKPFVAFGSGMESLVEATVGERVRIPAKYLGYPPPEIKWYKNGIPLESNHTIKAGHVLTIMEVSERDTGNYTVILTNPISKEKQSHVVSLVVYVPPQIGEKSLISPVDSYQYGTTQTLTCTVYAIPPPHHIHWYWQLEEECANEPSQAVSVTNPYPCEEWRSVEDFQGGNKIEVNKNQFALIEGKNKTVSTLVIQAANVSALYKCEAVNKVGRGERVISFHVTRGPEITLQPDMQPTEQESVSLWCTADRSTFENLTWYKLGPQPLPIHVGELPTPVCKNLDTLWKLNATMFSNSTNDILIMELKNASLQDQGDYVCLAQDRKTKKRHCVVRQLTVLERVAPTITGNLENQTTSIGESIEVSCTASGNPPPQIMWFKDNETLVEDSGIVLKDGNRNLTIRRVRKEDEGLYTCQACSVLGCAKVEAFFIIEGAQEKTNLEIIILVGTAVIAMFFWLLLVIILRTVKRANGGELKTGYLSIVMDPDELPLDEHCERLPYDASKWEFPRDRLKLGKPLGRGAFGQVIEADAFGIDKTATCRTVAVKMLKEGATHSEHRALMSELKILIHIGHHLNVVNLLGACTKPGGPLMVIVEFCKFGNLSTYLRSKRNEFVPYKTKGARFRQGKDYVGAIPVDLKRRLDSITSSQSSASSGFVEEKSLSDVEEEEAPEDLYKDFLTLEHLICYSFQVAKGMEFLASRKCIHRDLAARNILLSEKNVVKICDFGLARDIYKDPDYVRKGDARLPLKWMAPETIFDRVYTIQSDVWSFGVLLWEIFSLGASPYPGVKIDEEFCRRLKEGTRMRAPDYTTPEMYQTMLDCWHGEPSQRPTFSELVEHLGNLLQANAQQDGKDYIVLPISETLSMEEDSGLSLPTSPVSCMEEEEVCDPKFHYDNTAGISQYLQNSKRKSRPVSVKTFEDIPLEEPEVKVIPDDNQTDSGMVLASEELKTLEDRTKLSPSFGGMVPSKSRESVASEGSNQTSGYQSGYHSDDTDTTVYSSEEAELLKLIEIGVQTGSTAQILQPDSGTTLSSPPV
Experimental: VEGFR is considered as an important target for the development of potential anti-cancer candidates.
On a 96-well plate, a particular VEGFR-2 antibody was seeded and 100 µL of the normal solution or compound tested was applied, incubated at room temperature for 2.5 h and washed.
Then, 100 µL of the prepared biotin antibody was added, incubated for an additional 1 h at room temperature and washed. Following, 100 µL of streptavidin solution was added at room temperature, incubated for 45 min and then, 100 µL of TMB substrate solution was applied and incubated at room temperature for 30 min. Finally, 50 µL stop solution was added and the absorption was measured at 450 nm instantly. The standard curve, the X-axis concentrations, and the Y-axis absorbance were drawn.

[7] = Homo sapiens, read-out: cell growth inhibition

`O=C(C=Cc1ccncc1F)c1ccc(N2CCNCC2)cc1` [Vf, 3-(3-Fluoropyridin-4-yl)-1-(4-(piperazin-1-yl)phenyl)prop-2-en-1-one] showed a cell growth promotion (786-0 (Renal cancer)) of 103.38%, a cell growth promotion (A498 (Renal cancer)) of 97.22% and a cell growth promotion [1] of 78.75%. For the same compound, the cell growth promotion (ACHN (Renal cancer)) was 113.06%, the cell growth promotion (BT-549 (Breast cancer)) was 90.81% and the cell growth promotion (CCRF-CEM (Leukaemia)) was 78.16%. The inhibition at 10 µM (CCRF-CEM (Leukaemia); [7]) was 21.8%, the cell growth promotion (COLO 205 (Colon cancer)) was 111.89% and the cell growth promotion (DU-145 (Prostate cancer)) was 108.14%. It also gave a cell growth promotion [2] of 99.11%, a cell growth promotion (HCC-2998 (Colon cancer)) of 100.88% and a cell growth promotion (HCT-116 (Colon cancer)) of 73.87%. For the same compound, the inhibition at 10 µM (HCT-116 (Colon cancer)) was 26.1%, the cell growth promotion (HCT-15 (Colon cancer)) was 111.39% and the cell growth promotion (HL-60(TB) (Leukaemia)) was 79.28%. It also gave an inhibition at 10 µM (HL-60(TB) (Leukaemia); [7]) of 20.7%, a cell growth promotion [3] of 82.34% and an inhibition at 10 µM [3] of 17.7%. For the same compound, the cell growth promotion (IGROV1 (Ovarian cancer)) was 97.17%, the cell growth promotion (KM12 (Colon cancer)) was 105.34% and the cell growth promotion (LOX IMVI (Melanoma)) was 103.22%. For the same compound, the cell growth promotion (M14 (Melanoma)) was 95.53%, the cell growth promotion (MALME-3M (Melanoma)) was 99.98% and the cell growth promotion (MCF7 (Breast cancer)) was 99.38%. It also gave an inhibition at 10 µM (MCF7 (Breast cancer); [7]) of 0.62%, a cell growth promotion [4] of 98.76% and a cell growth promotion (MDA-MB-435 (Melanoma)) of 102.37%. For the same compound, the cell growth promotion [5] was 106.01%, the cell growth promotion [6] was 107.53% and the cell growth promotion (OVCAR-4 (Ovarian cancer)) was 110.55%. The cell growth promotion (OVCAR-5 (Ovarian cancer)) was 111.84%, the cell growth promotion (OVCAR-8 (Ovarian cancer)) was 95.35% and the cell growth promotion (PC-3 (Prostate cancer)) was 73.56%. It also gave a cell growth promotion (RPMI-8226 (Leukaemia)) of 97.33%, a cell growth promotion (RXF 393 (Renal cancer)) of 97.78% and a cell growth promotion (SK-MEL-2 (Melanoma)) of 91.63%. It also gave a cell growth promotion (SK-MEL-28 (Melanoma)) of 115.56%, a cell growth promotion (SK-OV-3 (Ovarian cancer)) of 96.68% and a cell growth promotion (SNB-19 (CNS cancer)) of 96.07%. The cell growth promotion (SW-620 (Colon cancer)) was 105.59%, the cell growth promotion (T-47D (Breast cancer)) was 118.12% and the cell growth promotion (TK-10 (Renal cancer)) was 95.83%. For the same compound, the cell growth promotion (U251 (CNS cancer)) was 95.03%, the cell growth promotion (UACC-257 (Melanoma)) was 70.86% and the cell growth promotion (UACC-62 (Melanoma)) was 92.01%. The cell growth promotion (UO-31 (Renal cancer)) was 89.78% and the IC50 (human VEGFR-2) was 1330 nM.
In the case of `Fc1cnccc1C1CC(c2ccc(N3CCNCC3)cc2)=NN1` (stereo not shown) [VIc, 1-(4-(5-(3-Fluoropyridin-4-yl)-4,5-dihydro-1H-pyrazol-3-yl)phenyl) piperazine], the cell growth promotion (786-0 (Renal cancer)) is reported as 111.09%, the cell growth promotion (A498 (Renal cancer)) is reported as 97.17% and the cell growth promotion [1] is reported as 76.20%. It also gave a cell growth promotion (ACHN (Renal cancer)) of 99.87%, a cell growth promotion (BT-549 (Breast cancer)) of 85.33% and a cell growth promotion (CCRF-CEM (Leukaemia)) of 80.81%. The cell growth promotion (COLO 205 (Colon cancer)) was 95.69%, the cell growth promotion (DU-145 (Prostate cancer)) was 107.16% and the cell growth promotion [2] was 91.04%. The cell growth promotion (HCC-2998 (Colon cancer)) was 101.72%, the cell growth promotion (HCT-116 (Colon cancer)) was 73.82% and the inhibition at 10 µM (HCT-116 (Colon cancer)) was 26.2%. For the same compound, the cell growth promotion (HCT-15 (Colon cancer)) was 97.59%, the cell growth promotion (HL-60(TB) (Leukaemia)) was 77.32% and the cell growth promotion [3] was 72.42%. For the same compound, the inhibition at 10 µM [3] was 27.6%, the cell growth promotion (IGROV1 (Ovarian cancer)) was 67.96% and the cell growth promotion (KM12 (Colon cancer)) was 96.23%. The cell growth promotion (LOX IMVI (Melanoma)) was 94.31%, the cell growth promotion (M14 (Melanoma)) was 95.86% and the cell growth promotion (MALME-3M (Melanoma)) was 93.43%. The cell growth promotion (MCF7 (Breast cancer)) was 73.03%, the cell growth promotion [4] was 84.58% and the cell growth promotion (MDA-MB-435 (Melanoma)) was 105.18%. For the same compound, the cell growth promotion [5] was 94.92%, the cell growth promotion [6] was 106.03% and the cell growth promotion (OVCAR-4 (Ovarian cancer)) was 108.25%. For the same compound, the cell growth promotion (OVCAR-5 (Ovarian cancer)) was 111.45%, the cell growth promotion (OVCAR-8 (Ovarian cancer)) was 95.06% and the cell growth promotion (PC-3 (Prostate cancer)) was 70.34%. The cell growth promotion (RPMI-8226 (Leukaemia)) was 92.51%, the cell growth promotion (RXF 393 (Renal cancer)) was 104.89% and the cell growth promotion (SK-MEL-2 (Melanoma)) was 92.72%. For the same compound, the cell growth promotion (SK-MEL-28 (Melanoma)) was 115.80%, the cell growth promotion (SK-OV-3 (Ovarian cancer)) was 85.00% and the cell growth promotion (SNB-19 (CNS cancer)) was 97.45%. For the same compound, the cell growth promotion (SW-620 (Colon cancer)) was 93.46%, the cell growth promotion (T-47D (Breast cancer)) was 82.20% and the cell growth promotion (TK-10 (Renal cancer)) was 122.80%. It also gave a cell growth promotion (U251 (CNS cancer)) of 95.06%, a cell growth promotion (UACC-257 (Melanoma)) of 83.07% and a cell growth promotion (UACC-62 (Melanoma)) of 81.93%. It also gave a cell growth promotion (UO-31 (Renal cancer)) of 77.18% and an IC50 (human VEGFR-2) of 1310 nM.
